# Earlier results in patent US9289400B2, “D3 dopamine receptor agonists to treat dyskinesia in parkinson's disease” (priority 2010, dated 2016).
# Biological target: D4.2
# Settings: Scheideler et al., 1997; cited from earlier work
structure (smiles),measurement,value
"CCCN1CC[C@@H]2c3cc(O)ccc3CC[C@@H]21 [PBZI, (3aS,9bR)-3-propyl-1,2,3a,4,5,9b-hexahydrobenzo[e]indol-8-ol]",Ki,280 nM
